Test results reported in US12264159B2, “Functionalized heterocycles as antiviral agents” (Enanta Pharmaceuticals, Inc., priority 2018, dated 2025).

How the values were obtained:
[1] = system: HBV in 2.2.15 cells; assay: 2.2.15 cells: viral product in cell lysates quantified via quantitative real time PCR; format: cell-based, hepatitis B virus (HBV); conditions: Hepatitis B virus, 120 h, day 5 post treatment, 50% reduction of viral product vs no drug controls, readout (qPCR, HBsAg or HBeAg) not specified for the column
Procedure, shortened: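 HBV product was measured at day 5 by lysate qPCR or by supernatant HBsAg/HBeAg ELISA, in 2.2.15 cells seeded at 35,000/well and exposed to 5-fold compound dilution series (0.5% DMSO). EC50 is 50% reduction of viral product relative to untreated controls.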

[2] = Compound induced cellular toxicity in HepG2 cells, ATPlite 1Step; format: cell-based; conditions: human, three days exposure, 50% reduction of total ATP vs no drug controls
Procedure: At day 3, post seeding cells are treated with ATPlite 1Step according to the manufacturer's instructions.

In the case of `CCOc1ccc(F)cc1-c1cc2n(n1)C[C@@H](C(C)(C)C)n1cc(C(=O)O)c(=O)cc1-2` [Example 73, (R)-6-(tert-butyl)-2-(2-ethoxy-5-fluorophenyl)-10-oxo-5,6-dihydro-10H-pyrazolo[1,5-a]pyrido[2,2-c]pyrazine-12-carboxylic acid], the EC50 [1] is reported as < 0.1 µM and the CC50 at 3 days [2] is reported as > 25 µM.
In the case of `Cc1ccccc1-c1cnn2c1-c1cc(=O)c(C(=O)O)cn1[C@H](C(C)(C)C)C2` [Example 127, (R)-6-(tert-butyl)-10-oxo-1-(o-tolyl)-5,6-dihydro-10H-pyrazolo[1,5-a]pyrido[2,1-c]pyrazine-9-carboxylic acid], the EC50 [1] is reported as < 0.1 µM and the CC50 at 3 days [2] is reported as > 25 µM.
In the case of `CC(C)[C@@H]1Cn2nc(-c3ccc(F)cc3)c(-c3ccc(F)cc3)c2-c2cc(=O)c(C(=O)O)cn21` [Example 180, (R)-1,2-bis(4-fluorophenyl)-6-isopropyl-10-oxo-5,6-dihydro-10H-pyrazolo[1,5-a]pyrido[2,1-c]pyrazine-9-carboxylic acid], the EC50 [1] is reported as < 0.1 µM and the CC50 at 3 days [2] is reported as 10 to 25 µM.
With `Cc1cccc(-c2c(-c3ccc(F)cc3)nn3c2-c2cc(=O)c(C(=O)O)cn2[C@H](C(C)(C)C)C3)c1` [Example 170, (R)-6-(tert-butyl)-2-(4-fluorophenyl)-10-oxo-1-(m-tolyl)-5,6-dihydro-10H-pyrazolo[1,5-a]pyrido[2,1-c]pyrazine-9-carboxylic acid] the EC50 [1] was < 0.1 µM and the CC50 at 3 days [2] was 10 to 25 µM.
With `C[C@@H]1Cn2nc(-c3cccc(F)c3)c(-c3cccc(F)c3)c2-c2cc(=O)c(C(=O)O)cn21` [Example 205, (R)-1,2-bis(3-fluorophenyl)-6-methyl-10-oxo-5,6-dihydro-10H-pyrazolo[1,5-a]pyrido[2,1-c]pyrazine-9-carboxylic acid] the EC50 [1] was < 0.1 µM and the CC50 at 3 days [2] was 10 to 25 µM.
With `COc1ccc(-c2cnn3c2-c2cc(=O)c(C(=O)O)cn2[C@H](C(C)(C)C)C3)cc1` [Example 114, (R)-6-(tert-butyl)-1-(4-methoxyphenyl)-10-oxo-5,6-dihydro-10H-pyrazolo[1,5-a]pyrido[2,1-c]pyrazine-9-carboxylic acid] the EC50 [1] was < 0.1 µM and the CC50 at 3 days [2] was > 25 µM.
With `CC(C)(C)[C@@H]1Cn2ncc(-c3ccco3)c2-c2cc(=O)c(C(=O)O)cn21` [Example 108, (R)-6-(tert-butyl)-1-(furan-2-yl)-10-oxo-5,6-dihydro-10H-pyrazolo[1,5-a]pyrido[2,1-c]pyrazine-9-carboxylic acid] the EC50 [1] was < 0.1 µM and the CC50 at 3 days [2] was 10 to 25 µM.
With `CC(C)(C)[C@@H]1Cn2nc(-c3ccc(F)cc3)cc2-c2cc(=O)c(C(=O)O)cn21` [Example 1, (R)-6-(tert-butyl)-2-(4-fluorophenyl)-10-oxo-5,6-dihydro-10H-pyrazolo[1,5-a]pyrido[2,2-c]pyrazine-12-carboxylic acid] the EC50 [1] was < 0.1 µM and the CC50 at 3 days [2] was > 25 µM.
In the case of `CC(C)(C)[C@@H]1Cn2nc(-c3ccc(F)cc3)c(-c3ccccc3)c2-c2cc(=O)c(C(=O)O)cn21` [Example 166, (R)-6-(tert-butyl)-2-(4-fluorophenyl)-10-oxo-1-phenyl-5,6-dihydro-10H-pyrazolo[1,5-a]pyrido[2,1-c]pyrazine-9-carboxylic acid], the EC50 [1] is reported as < 0.1 µM and the CC50 at 3 days [2] is reported as > 25 µM.
For `CC(C)(C)[C@@H]1Cn2ncc(-c3cccs3)c2-c2cc(=O)c(C(=O)O)cn21` [Example 109, (R)-6-(tert-butyl)-10-oxo-1-(thiophen-2-yl)-5,6-dihydro-10H-pyrazolo[1,5-a]pyrido[2,1-c]pyrazine-9-carboxylic acid], the EC50 [1] was < 0.1 µM and the CC50 at 3 days [2] was > 25 µM.
With `CC(C)(C)[C@@H]1Cn2nc(-c3ccccc3C(F)F)cc2-c2cc(=O)c(C(=O)O)cn21` [Example 85] the EC50 [1] was 0.2 to 1 µM and the CC50 at 3 days [2] was > 25 µM.
With `CC(C)(C)[C@@H]1Cn2nc(-c3ccccc3OC3CC3)cc2-c2cc(=O)c(C(=O)O)cn21` [Example 81, (R)-6-(tert-butyl)-2-(2-cyclopropoxyphenyl)-10-oxo-5,6-dihydro-10H-pyrazolo[1,5-a]pyrido[2,2-c]pyrazine-12-carboxylic acid] the EC50 [1] was < 0.1 µM and the CC50 at 3 days [2] was > 25 µM.
For `CC(C)[C@@H]1Cn2nc(-c3ccccc3F)c(-c3ccccc3F)c2-c2c(F)c(=O)c(C(=O)O)cn21` [Example 182, (R)-11-fluoro-1,2-bis(2-fluorophenyl)-6-isopropyl-10-oxo-5,6-dihydro-10H-pyrazolo[1,5-a]pyrido[2,1-c]pyrazine-9-carboxylic acid], the EC50 [1] was < 0.1 µM and the CC50 at 3 days [2] was > 25 µM.
With `CC(C)(C)[C@@H]1Cn2nc(-c3ccc(F)cc3F)cc2-c2cc(=O)c(C(=O)O)cn21` [Example 8, (R)-6-(tert-butyl)-2-(2,4-difluorophenyl)-10-oxo-5,6-dihydro-10H-pyrazolo[1,5-a]pyrido[2,2-c]pyrazine-12-carboxylic acid] the EC50 [1] was < 0.1 µM and the CC50 at 3 days [2] was > 25 µM.
With `CC(C)(C)[C@@H]1Cn2nc(-c3c(O)cccc3F)cc2-c2cc(=O)c(C(=O)O)cn21` [Example 47, (R)-6-(tert-butyl)-2-(2-fluoro-6-hydroxyphenyl)-10-oxo-5,6-dihydro-10H-pyrazolo[1,5-a]pyrido[2,2-c]pyrazine-12-carboxylic acid] the EC50 [1] was < 0.1 µM and the CC50 at 3 days [2] was > 25 µM.
In the case of `CC(C)(C)[C@@H]1Cn2nc(-c3cccc4c3OCCCO4)cc2-c2cc(=O)c(C(=O)O)cn21` [Example 43, (R)-6-(tert-butyl)-2-(3,4-dihydro-2H-benzo[b][1,4]dioxepin-6-yl)-10-oxo-5,6-dihydro-10H-pyrazolo[1,5-a]pyrido[2,2-c]pyrazine-12-carboxylic acid], the EC50 [1] is reported as < 0.1 µM and the CC50 at 3 days [2] is reported as > 25 µM.
For `CC(C)(C)[C@@H]1Cn2ncc(-c3cccc4c3OC(F)(F)O4)c2-c2cc(=O)c(C(=O)O)cn21` [Example 111, (R)-6-(tert-butyl)-1-(2,2-difluorobenzo[d][1,3]dioxol-4-yl)-10-oxo-5,6-dihydro-10H-pyrazolo[1,5-a]pyrido[2,1-c]pyrazine-9-carboxylic acid], the EC50 [1] was < 0.1 µM and the CC50 at 3 days [2] was > 25 µM.
For `CC(C)(C)[C@@H]1Cn2nc(C3CC3)c(-c3cncs3)c2-c2cc(=O)c(C(=O)O)cn21` [Example 163, (R)-6-(tert-butyl)-2-cyclopropyl-10-oxo-1-(thiazol-5-yl)-5,6-dihydro-10H-pyrazolo[1,5-a]pyrido[2,1-c]pyrazine-9-carboxylic acid], the EC50 [1] was < 0.1 µM and the CC50 at 3 days [2] was > 25 µM.
For `CC(C)(C)[C@@H]1Cn2nc(-c3ccc(F)cc3)c(-c3ccccc3F)c2-c2cc(=O)c(C(=O)O)cn21` [Example 169, (R)-6-(tert-butyl)-1-(2-fluorophenyl)-2-(4-fluorophenyl)-10-oxo-5,6-dihydro-10H-pyrazolo[1,5-a]pyrido[2,1-c]pyrazine-9-carboxylic acid], the EC50 [1] was < 0.1 µM and the CC50 at 3 days [2] was 10 to 25 µM.
With `CC(C)(C)[C@@H]1Cn2nc(-c3ccc(F)nc3)cc2-c2cc(=O)c(C(=O)O)cn21` [Example 38, (R)-6-(tert-butyl)-2-(6-fluoropyridin-3-yl)-10-oxo-5,6-dihydro-10H-pyrazolo[1,5-a]pyrido[2,2-c]pyrazine-12-carboxylic acid] the EC50 [1] was < 0.1 µM and the CC50 at 3 days [2] was > 25 µM.
In the case of `CC(C)[C@@H]1Cn2nc(-c3cccc(F)c3)c(-c3cccc(F)c3)c2-c2cc(=O)c(C(=O)O)cn21` [Example 181, (R)-1,2-bis(3-fluorophenyl)-6-isopropyl-10-oxo-5,6-dihydro-10H-pyrazolo[1,5-a]pyrido[2,1-c]pyrazine-9-carboxylic acid], the EC50 [1] is reported as < 0.1 µM and the CC50 at 3 days [2] is reported as 10 to 25 µM.
With `CC(C)(C)[C@@H]1Cn2nc(-c3cccc4ccoc34)cc2-c2cc(=O)c(C(=O)O)cn21` [Example 27, (R)-2-(benzofuran-7-yl)-6-(tert-butyl)-10-oxo-5,6-dihydro-10H-pyrazolo[1,5-a]pyrido[2,2-c]pyrazine-12-carboxylic acid] the EC50 [1] was < 0.1 µM and the CC50 at 3 days [2] was > 25 µM.
With `COc1ncc(-c2cc3n(n2)C[C@@H](C(C)(C)C)n2cc(C(=O)O)c(=O)cc2-3)cn1` [Example 6, (R)-6-(tert-butyl)-2-(2-methoxypyrimidin-5-yl)-10-oxo-5,6-dihydro-10H-pyrazolo[1,5-a]pyrido[2,2-c]pyrazine-12-carboxylic acid] the EC50 [1] was < 0.1 µM and the CC50 at 3 days [2] was > 25 µM.
In the case of `COc1cccc(-c2cc3n(n2)C[C@@H](C(C)(C)C)n2cc(C(=O)O)c(=O)cc2-3)c1` [Example 11, (R)-6-(tert-butyl)-2-(3-methoxyphenyl)-10-oxo-5,6-dihydro-10H-pyrazolo[1,5-a]pyrido[2,2-c]pyrazine-12-carboxylic acid], the EC50 [1] is reported as < 0.1 µM and the CC50 at 3 days [2] is reported as > 25 µM.
With `Cc1cc(-c2cc3n(n2)C[C@@H](C(C)(C)C)n2cc(C(=O)O)c(=O)cc2-3)c(F)cc1F` [Example 39, (R)-6-(tert-butyl)-2-(2,4-difluoro-5-methylphenyl)-10-oxo-5,6-dihydro-10H-pyrazolo[1,5-a]pyrido[2,2-c]pyrazine-12-carboxylic acid] the EC50 [1] was < 0.1 µM and the CC50 at 3 days [2] was > 25 µM.
With `CC(C)(C)[C@@H]1Cn2nc(-c3ccc(OC(F)(F)F)cc3)cc2-c2cc(=O)c(C(=O)O)cn21` [Example 25, (R)-6-(tert-butyl)-10-oxo-2-(4-(trifluoromethoxy)phenyl)-5,6-dihydro-10H-pyrazolo[1,5-a]pyrido[2,2-c]pyrazine-12-carboxylic acid] the EC50 [1] was 0.2 to 1 µM and the CC50 at 3 days [2] was > 25 µM.
In the case of `CC(C)(C)[C@@H]1Cn2nc(-c3ccc4c(c3)OCCO4)cc2-c2cc(=O)c(C(=O)O)cn21` [Example 18, (R)-6-(tert-butyl)-2-(2,3-dihydrobenzo[b][1,4]dioxin-6-yl)-10-oxo-5,6-dihydro-10H-pyrazolo[1,5-a]pyrido[2,2-c]pyrazine-12-carboxylic acid], the EC50 [1] is reported as < 0.1 µM and the CC50 at 3 days [2] is reported as > 25 µM.
In the case of `CC(C)[C@@H]1Cn2nc(-c3ccccc3)c(-c3ccccc3)c2-c2cc(=O)c(C(=O)O)cn21` [Example 179, (R)-6-isopropyl-10-oxo-1,2-diphenyl-5,6-dihydro-10H-pyrazolo[1,5-a]pyrido[2,1-c]pyrazine-9-carboxylic acid], the EC50 [1] is reported as < 0.1 µM and the CC50 at 3 days [2] is reported as > 25 µM.
